Assay results as given in patent US20240408093A1, “HETEROBIFUNCTIONAL COMPOUNDS AND THEIR USE IN TREATING DISEASE” (HALDA THERAPEUTICS OPCO, INC., priority 2022, published 2024).

Tests used:
[1] = molecular target: T1, EGFR T790M/L858R kinase domain (Homo sapiens, UniProt P00533, L858R/T790M); assay: EGFR cellular target engagement assay (HEK293 cells stable for EGFR T790M, L858R); format: cell-based; settings: 6 hours, read-out: TE50 (the source's name)
T1 construct: EGFR (amino acids 696-1022, T790M, L858R); expressed in transfected cells; host or cells: HEK293, lentiviral transduction, puromycin selection
Procedure: HEK293 cells were cultured in DMEM (Gibco 11995), supplemented with 10% Heat-inactivated FBS (Gibco A38400-01) and 1% Penicillin/Streptomycin (Gibco 15140-122) at 37° C. with 5% CO2 in a humidified tissue culture incubator. Cells were made stable for EGFR (amino acids 696-1022, T790M, L858R) by lentiviral transduction, followed by selection with 1 μg/ml Puromycin Dihydrochloride (Thermo A1113803). Cells were seeded at 30,000 cells/ml in 0.1 ml of complete media in Poly-D-lysine-treated 96-well plates and incubated overnight. Cells were treated with increasing concentrations of compound and let incubate at 37C and 5% CO2 for 6 hours, after which media was aspirated, washed with 1×PBS and cells were lysed in RIPA Lysis and Extraction Buffer (Thermo 89901) supplemented with 5 mM MgCl2, Protease and Phosphatase inhibitor cocktail (Thermo 1861281), and Universal Nuclease (Thermo 88700). Plates with RIPA were shaken at 4° C. at 600 rpm for 15 min. After shaking samples, they were collected and spun down at 21,000 g for 15 min at 4° C. Following centrifugation, […] of lysate was added to Laemmli Sample Buffer (Bio-Rad 1610747) plus 10% beta-mercaptoethanol, boiled for 15 minutes at 65° C. and loaded onto 4-20% Mini-PROTEAN TGX™ Precast Protein Gels (Bio-Rad). Protein was transferred to a nitrocellulose membrane (Thermo LC2000) using the iBlot 2 Dry Blotting System (Thermo). After transfer, membranes were washed in 1× TBST (Bioland Scientific LLC TBST0103) 3× for 5 min. Following the wash, blocking buffer (Rockland MB-070) was added for 1 hour at room temperature. Primary antibodies against EGFR (Cell Signaling Technology 3197) and actin (Cell Signaling Technology 3700S) were added overnight at 4° C. Membranes were then washed again 3× for 5 min in 1× TBST. Secondary antibodies (LI-COR 926-68072 and 926-68073) were added and shaken for 1 hr at room temperature. Membranes were then washed 3× for 5 min in 1×TBST and developed. Membranes were placed on an Odyssey imager (LI-COR).

[2] = molecular target: T2, EGFR T790M, L858R (amino acids 669-1011) (Homo sapiens, UniProt P00533, L858R/T790M); assay: KdELECT binding assay, EGFR T790M, L858R
T2 construct: purchased Eurofins Discovery (KdELECT); host or cells: mammalian cells (HEK-293)
Procedure: Exemplary compounds were tested for ability to bind to EGFR WT (amino acids 669-1011, Accession Number NP_005219.2) or EGFR T790M, L858R (amino acids 669-1011 Accession Number NP_005219.2) expressed from bacteria or mammalian cells, respectively. Compounds were tested using the KdELECT assay at Eurofins Discovery.
Kinase-tagged T7 phage strains were prepared in an E. coli host derived from the BL21 strain. E. coli were grown to log-phase and infected with T7 phage and incubated with shaking at 32° C. until lysis. The lysates were centrifuged and filtered to remove cell debris. The remaining kinases were produced in HEK-293 cells and subsequently tagged with DNA for qPCR detection. Streptavidin-coated magnetic beads were treated with biotinylated small molecule ligands for 30 minutes at room temperature to generate affinity resins for kinase assays. The liganded beads were blocked with excess biotin and washed with blocking buffer (SeaBlock (Pierce), 1% BSA, 0.05% Tween 20, 1 mM DTT) to remove unbound ligand and to reduce non-specific binding. Binding reactions were assembled by combining kinases, liganded affinity beads, and test compounds in 1x binding buffer (20% SeaBlock, 0.17× PBS, 0.05% Tween 20, 6 mM DTT). Test compounds were prepared as 111× stocks in 100% DMSO. Kd values were determined using an 11-point 3-fold compound dilution series with three DMSO control points. All compounds for Kd measurements are distributed by acoustic transfer (non-contact dispensing) in 100% DMSO. The compounds were then diluted directly into the assays such that the final concentration of DMSO was 0.9%. All reactions performed in polypropylene 384-well plate. Each was a final volume of 0.02 mL. The assay plates were incubated at room temperature with shaking for 1 hour and the affinity beads were washed with wash buffer (1× PBS, 0.05% Tween 20). The beads were then re-suspended in elution buffer (1× PBS, 0.05% Tween 20, 0.5 μM nonbiotinylated affinity ligand) and incubated at room temperature with shaking for 30 minutes. The kinase concentration in the eluates was measured by qPCR.

T2 sequence (P00533 669-1011 T790M/L858R): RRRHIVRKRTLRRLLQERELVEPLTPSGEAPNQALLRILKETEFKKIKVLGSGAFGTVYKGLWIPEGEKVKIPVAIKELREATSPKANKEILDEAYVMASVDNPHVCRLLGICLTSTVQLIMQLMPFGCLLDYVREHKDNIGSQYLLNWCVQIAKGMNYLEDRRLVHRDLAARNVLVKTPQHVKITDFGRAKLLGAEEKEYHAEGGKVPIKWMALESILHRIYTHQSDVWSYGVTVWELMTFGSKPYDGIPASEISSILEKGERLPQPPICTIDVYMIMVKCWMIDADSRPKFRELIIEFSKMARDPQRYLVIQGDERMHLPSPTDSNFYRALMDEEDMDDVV
T1 sequence (P00533 696-1022 T790M/L858R): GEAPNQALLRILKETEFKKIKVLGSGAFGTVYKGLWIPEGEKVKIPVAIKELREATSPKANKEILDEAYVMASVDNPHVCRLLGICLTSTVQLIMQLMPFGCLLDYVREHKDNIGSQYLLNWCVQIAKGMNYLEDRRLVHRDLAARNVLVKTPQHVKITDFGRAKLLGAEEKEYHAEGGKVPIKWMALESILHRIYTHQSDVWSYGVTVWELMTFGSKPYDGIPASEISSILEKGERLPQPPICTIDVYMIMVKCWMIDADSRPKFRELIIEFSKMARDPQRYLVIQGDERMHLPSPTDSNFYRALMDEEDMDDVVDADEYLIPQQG

Row | SMILES | EC50 [1] [µM] | Kd [2] [µM]
1 | C=C(CN(C(=O)NCc1ccc2c(c1)CN(C1CCC(=O)NC1=O)C2=O)c1ccc(C)c(Cl)c1)C(=O)Nc1cc(Nc2ncc(-c3cn(C)c4ccccc34)cn2)c(OC)cc1N(C)CCN(C)C (stereo not drawn) [Compound I-42] | 5 to 10 | 0.5 to 2.5
2 | C=C(COc1cc(Cl)cc(NC(=O)NCc2ccc3c(c2)CN(C2CCC(=O)NC2=O)C3=O)c1)C(=O)N[C@@H]1CN(c2nc(Nc3cn(C)nc3OC)c3ncn(C)c3n2)C[C@H]1F (stereo partly drawn) [Compound I-45] |  | < 0.05
3 | C=C(COc1ccc(Cl)cc1NC(=O)NCc1ccc2c(c1)CN(C1CCC(=O)NC1=O)C2=O)C(=O)N[C@@H]1CN(c2nc(Nc3cn(C)nc3OC)c3ncn(C)c3n2)C[C@H]1F (stereo partly drawn) [Compound I-47] | 0.25 to 5 | < 0.05
4 | C=C(COc1cc(Cl)cc(NC(=O)NCc2ccc3c(c2)CN(C2CCC(=O)NC2=O)C3=O)c1)C(=O)N1C[C@H](COc2nc(Nc3cnn(C)c3)nc3[nH]cc(Cl)c23)[C@@H](OC)C1 (stereo partly drawn) [Compound I-54] | 0.25 to 5 | > 2.5
5 | C=C(COc1cc(Cl)cc(NC(=O)NCc2ccc3c(c2)CN(C2CCC(=O)NC2=O)C3=O)c1)C(=O)Nc1cccc(Oc2nc(Nc3ccc(N4CCN(C)CC4)cc3)nc3ccsc23)c1 (stereo not drawn) [Compound I-55] | > 10 | 0.5 to 2.5
6 | C=C(COc1cc(Cl)cc(NC(=O)NCc2ccc3c(c2)CN(C2CCC(=O)NC2=O)C3=O)c1)C(=O)Nc1cc(Nc2nccc(-c3cn(C)c4ccccc34)n2)c(OC)cc1N(C)CCN(C)C (stereo not drawn) [Compound I-59] | 0.25 to 5 | < 0.05
7 | C=C(COc1c(Cl)cccc1NC(=O)NCc1ccc2c(c1)CN(C1CCC(=O)NC1=O)C2=O)C(=O)Nc1cc(Nc2nccc(-c3cn(C)c4ccccc34)n2)c(OC)cc1N(C)CCN(C)C (stereo not drawn) [Compound I-60] | < 0.25 | < 0.05
8 | C=C(COc1cc(Cl)cc(NC(=O)NCc2ccc3c(c2)CN(C2CCC(=O)NC2=O)C3=O)c1)C(=O)Nc1cccc(-c2cccc3cnc(Nc4ccc(N5CCN(CCO)CC5)c(F)c4F)nc23)c1 (stereo not drawn) [Compound I-61] | > 10 | 0.05 to 0.5
9 | C=C(COc1c(Cl)cccc1NC(=O)NCc1ccc2c(c1)CN(C1CCC(=O)NC1=O)C2=O)C(=O)N[C@@H]1CN(c2nc(Nc3cn(C)nc3OC)c3ncn(C)c3n2)C[C@H]1F (stereo partly drawn) [Compound I-69] | 0.25 to 5 | 
10 | C=C(CN(C(=O)NCc1ccc2c(c1)CN(C1CCC(=O)NC1=O)C2=O)c1ccc(C)c(Cl)c1)C(=O)Nc1cccc(Oc2nc(Nc3ccc(N4CCN(C)CC4)cc3)nc3ccsc23)c1 (stereo not drawn) [Compound I-70] | > 10 | 
11 | C=C(CN(C(=O)NCc1ccc2c(c1)CN(C1CCC(=O)NC1=O)C2=O)c1ccc(C)c(Cl)c1)C(=O)N1C[C@@H](COc2nc(Nc3cnn(C)c3)nc3[nH]cc(Cl)c23)[C@H](OC)C1 (stereo partly drawn) [Compound I-71] | > 10 | 
12 | C=C(CN1C(=O)CCC(N2Cc3cc(CNC(=O)Nc4ccc(C)c(Cl)c4)ccc3C2=O)C1=O)C(=O)Nc1cc(Nc2ncc(-c3cn(C)c4ccccc34)cn2)c(OC)cc1N(C)CCN(C)C (stereo not drawn) [Compound I-87] | < 0.25 | < 0.05

Next, values leading:

Row | EC50 [1] [µM] | Kd [2] [µM] | SMILES
13 | > 10 | > 2.5 | C=C(COC(=O)n1c(CNc2nc(N3CCNCC3)nc3c(Br)cnn23)nc2cc(C)ccc21)C(=O)N1C[C@H](COc2nc(Nc3cnn(C)c3)nc3[nH]cc(Cl)c23)[C@@H](OC)C1 [Compound V-4]
14 | 0.25 to 5 | 0.05 to 0.5 | C=C(COc1cc(-c2ccccn2)ccc1CNc1nc(N[C@H](CC)CO)nc2c1ncn2C(C)C)C(=O)N[C@@H]1CN(c2nc(Nc3cn(C)nc3OC)c3ncn(C)c3n2)C[C@H]1F [II-183]
15 | > 10 | > 2.5 | C=C(COC(=O)N1CCN(c2nc(NCc3nc4cc(C)ccc4[nH]3)n3ncc(Br)c3n2)CC1)C(=O)N1C[C@H](COc2nc(Nc3cnn(C)c3)nc3[nH]cc(Cl)c23)[C@@H](OC)C1 [II-185]
16 | < 0.25 | < 0.05 | C=C(CN1CCN(c2nc(NCc3nc4cc(C)ccc4[nH]3)n3ncc(Br)c3n2)CC1)C(=O)Nc1cc(Nc2nccc(-c3cn(C)c4ccccc34)n2)c(OC)cc1N(C)CCN(C)C [II-188]
17 | > 10 | 0.5 to 2.5 | C=C(CN1CCN(c2nc(NCc3nc4cc(C)ccc4[nH]3)n3ncc(Br)c3n2)CC1)C(=O)Nc1cccc(-c2cccc3cnc(Nc4ccc(N5CCN(CCO)CC5)c(F)c4F)nc23)c1 [II-191]
